# Experimental data from patent publication US9737559B2, “Synergistic anti-diabetic compositions” (Ozstar Therapeutics Pty Ltd, priority 2011, dated 2017).
# Legend:
# Format in all cases: in vivo, human
# [1] = tested on: patient with T2DM; assay: Gliclazide/inulin combination therapy, extended case report: FBG, HA1C and lipid profiles; conditions: Gliclazide 30 mg once daily for nearly a decade, before inulin
# Source text: This patient began the combination therapy with a commercially available inulin (Cl) as previously described in PCT/AU2011/000622, the contents of which are incorporated herein in their entirety. Various blood parameter measurements were as described PCT/AU2011/000622.
# [2] = tested on: patient with T2DM; assay: Glimepiride/inulin combination therapy, T2DM case report, FBG
# Protocol: Doctor recommended diet-only treatment. […] The dose was increased in a 1 mg increment and currently this patient is taking 4 mg once daily Glimepiride. [table] Blood sugar level was determined using Accu-Chek Performa (Roche, Mannheim, Germany) device (CAT/TYP 04680464003 mmol/L and 55405079196) according to manufacturer instructions. During baseline measurements of FBG levels, patient was on Glimepiride at the dose of 4 mg once daily.
# [3] = tested on: patient with T2DM; assay: Glipizide/inulin combination therapy, T2DM case report, FBG
# Protocol: person, with body mass index of 29 classified as overweight, with the family history of T2DM.
# […] the patient was diagnosed with T2DM. Doctor recommended diet-only treatment. […] due to increased FBG levels the patient was treated with Glipizide (5 mg/day, 5 mg once daily). The dose was increased in a 5 mg increment and currently this patient is taking 15 mg/day, 5 mg three times a day, Glipizide.
# Blood sugar level was determined using Accu-Chek Performs (Roche, Mannheim, Germany) device (CAT/TYP 04680464002 mmol/L and 55403057614) according to manufacturer instructions.
# During baseline measurements of FBG level, patient was on Glipizide at the dose of 15 mg per day.
# inulin introduced at 3 g/day (1 g with each meal, 3 times a day) for one week. Inulin amount was increased to 6 g/day (2 g with each meal, 3 times a day) at week 2, 9 g/day (3 g with each meal, 3 times a day) at week 3 and 12 g/day (4 g with each meal, 3 times a day) at week 4.
# Patient continued taking inulin with meal at 4 g/meal (12 gr/day total).
compound,measurement,setting,value
Cc1ccc(S(=O)(=O)NC(=O)NN2CC3CCCC3C2)cc1 (centres unmarked) [Gliclazide],blood glucose levels,[1],above 9 mmol/L
CCC1=C(C)CN(C(=O)NCCc2ccc(S(=O)(=O)NC(=O)N[C@H]3CC[C@H](C)CC3)cc2)C1=O [Glimepiride],FBG at baseline,"[2]; Glimepiride 4 mg once daily, no inulin, June 2011",~8 mmol/L
same,FBG level prior to inulin combination therapy,"[2]; Glimepiride monotherapy, a couple of years prior to inulin",above 7 mmol/L
Cc1cnc(C(=O)NCCc2ccc(S(=O)(=O)NC(=O)NC3CCCCC3)cc2)cn1 [Glipizide],FBG at baseline,"[3]; Glipizide 15 mg per day, no inulin, July 2011",~6.5 mmol/L
same,FBG level prior to inulin combination therapy,"[3]; Glipizide monotherapy, a couple of years prior to inulin",around 7 mmol/L
